Test results as given in paper PMC6000956, “Immunomodulatory activities of pixatimod: emerging nonclinical and clinical data, and its potential utility in combination with PD-1 inhibitors” (Journal for Immunotherapy of Cancer, 2018).
Like-named read-outs stand apart in the source and are kept apart here.

Experiments:
beagle dogs [1] = assay: 1 month GLP toxicology study, weekly IV infusion; assay type: in vivo
Description: (§1) A 1 month toxicology study of pixatimod in beagle dogs was performed under OECD Good Laboratory Practice (GLP) to assess the toxicity and toxicokinetic profile of pixatimod with 5 intravenous, short term (approximately 1 h) infusions at three defined dose levels of 2.5, 7.5 and 20 mg/kg weekly over 29 days. Blood samples were collected for toxicokinetic investigation to provide information on the systemic exposure. Parameters monitored included mortality and morbidity, clinical signs, food consumption, body weight and body temperature, ophthalmoscopy and electrocardiographic measurements. Laboratory investigations were performed using haematology (ADVIA 120), coagulation (AMAX Density Plus Coagulometer), clinical chemistry (VITROS 950) and urinalysis (URYXXON 300). At the end of the treatment, all animals were euthanized and subjected to a complete necropsy with selected organs weighed and followed by a detailed histopathology evaluation. Bone marrow smears from the femur and sternum were prepared at necropsy, fixed and stained with May-Grünwald and Giemsa stain for analysis. Blood samples obtained during the Phase Ia monotherapy study (PG545102) were collected weekly and the parameters reported herein were analysed by local hospital laboratories.
In the 4T1.2 model, the percentage tumor growth inhibition was determined according to the following formula: 100 × (1-ΔT/ ΔC) where ΔC and ΔT were calculated by subtracting the mean tumor volume in each group on day 1 of treatment from the mean tumor volume on the day of analysis. Statistical analysis was performed using GraphPad Prism, v 6.0 (GraphPad, La Jolla, CA). An ANOVA analysis was performed followed by Dunnett’s post hoc test to compare the tumor growth in the treated groups to the vehicle control. In the dog toxicology study, the analysis was performed using non-parametric Kruskal-Wallis test. The frequency of clinical observations, and necropsy and histopathology findings, was calculated as applicable. For all statistical analyses, statistically significance differences between control and treatment groups was signified by *P < 0.05, **P < 0.01, ***P < 0.001, ****P < 0.0001 versus vehicle control.

beagle dogs [2] = assay: Previous repeated weekly SC toxicology study in beagle dogs (organ weights); assay type: in vivo; conditions: weekly SC x5, 2.5, 7.5 and 20 mg/kg
Description: Supplementary file 40425_2018_363_MOESM2_ESM.pptx: Additional file 2: Effect of pixatimod dosing on selected organ weights in beagle dogs (IV and SC) and rats (SC). Repeated weekly IV exposure (× 5) of pixatimod increases the relative weights of liver (A) and kidney (B) but not thymus (C) nor spleen (D) in beagle dogs. […] Data shown is for combined sexes. […] Study size, n = 15 for control and 48 mg/kg groups and n = 10 for 3 and 12 mg/kg groups. […] Study size, n = 5 for control and 20 mg/kg groups and n = 3 for 2.5 and 7.5 mg/kg groups. *P < 0.05, **P < 0.01, ***P < 0.001 versus control (Kruskal-Wallis test for the dog study, ANOVA followed by Dunnett’s comparison for the rat study). (PPTX 65 kb)

[3] = design: method as in PMID 21285983; conditions: tumor-bearing immunocompetent mice; cited from earlier work
[4] = Plasma exposure in the Phase Ia monotherapy study (PG545102), IV infusion; assay type: in vivo; conditions: human
Description: as §1
Plasma samples were analysed using a LC-MS/MS method as previously described. Pharmacokinetic parameters in animal studies were determined by non-compartmental analyses (NCA) of the mean plasma pixatimod concentration vs time profiles for each dose using the linear trapezoidal method in WinNonlin 5.2.1. For comparison with previous animal studies, exposure data (AUC0-last) in clinical samples were derived using individual subject NCA type exposure parameters from the original plasma concentration data using R (64-bit) Version 3.0.1.

[5] = High Dose (20 mg/kg), 6 animals examined
[6] = Low Dose (2.5 mg/kg), 6 animals examined
[7] = Mid Dose (7.5 mg/kg), 6 animals examined

CC(C)CCC[C@@H](C)[C@H]1CC[C@H]2[C@@H]3CC[C@H]4C[C@@H](O[C@@H]5O[C@H](COS(=O)(=O)O)[C@@H](O[C@H]6O[C@H](COS(=O)(=O)O)[C@@H](O[C@H]7O[C@H](COS(=O)(=O)O)[C@@H](O[C@H]8O[C@H](COS(=O)(=O)O)[C@@H](OS(=O)(=O)O)[C@H](OS(=O)(=O)O)[C@H]8OS(=O)(=O)O)[C@H](OS(=O)(=O)O)[C@H]7OS(=O)(=O)O)[C@H](OS(=O)(=O)O)[C@H]6OS(=O)(=O)O)[C@H](OS(=O)(=O)O)[C@H]5OS(=O)(=O)O)CC[C@]4(C)[C@H]3CC[C@]12C [pixatimod]
mortality (beagle dogs [1]; 2.5, 7.5 and 20 mg/kg weekly IV over 29 days): no mortality
Kidney: Cell infiltrate, mixed, perivascular, animals affected (beagle dogs [1]; [5]): 6
Kidney: Cell infiltrate, mixed, perivascular, mild (beagle dogs [1]; [5]): 4
Kidney: Cell infiltrate, mixed, perivascular, minimal (beagle dogs [1]; [5]): 1
Kidney: Cell infiltrate, mixed, perivascular, moderate (beagle dogs [1]; [5]): 1
Kidney: Dilatation tubular, animals affected (beagle dogs [1]; [5]): 6
Kidney: Dilatation tubular, by grade (minimal or mild, not resolvable) (beagle dogs [1]; [5]): 6
Kidney: Sclerosis glomerular, animals affected (beagle dogs [1]; [5]): 3
Kidney: Sclerosis glomerular, mild (beagle dogs [1]; [5]): 1
Kidney: Sclerosis glomerular, minimal (beagle dogs [1]; [5]): 2
Kidney: Vacuolation glomerular, animals affected (beagle dogs [1]; [5]): 4
Kidney: Vacuolation glomerular, mild (beagle dogs [1]; [5]): 4
Liver: Cell infiltrate, mixed, diffuse, animals affected (beagle dogs [1]; [5]): 2
Liver: Cell infiltrate, mixed, diffuse, mild (beagle dogs [1]; [5]): 2
Liver: Cell infiltrate, mononuclear, multifocal, animals affected (beagle dogs [1]; [5]): 0
Liver: Hypertrophy hepatocellular, animals affected (beagle dogs [1]; [5]): 6
Liver: Hypertrophy hepatocellular, mild (beagle dogs [1]; [5]): 5
Liver: Hypertrophy hepatocellular, minimal (beagle dogs [1]; [5]): 1
Liver: Hypertrophy, Kupffer cells, animals affected (beagle dogs [1]; [5]): 6
Liver: Hypertrophy, Kupffer cells, mild (beagle dogs [1]; [5]): 4
Liver: Hypertrophy, Kupffer cells, minimal (beagle dogs [1]; [5]): 2
Spleen: Cell infiltrate, mixed cellular, diffuse (minimal), animals affected (beagle dogs [1]; [5]): 4
Thymus: Lymphoid atrophy, animals affected (beagle dogs [1]; [5]): 2
Thymus: Lymphoid atrophy, mild (beagle dogs [1]; [5]): 1
Thymus: Lymphoid atrophy, minimal (beagle dogs [1]; [5]): 1
Kidney: Cell infiltrate, mixed, perivascular, animals affected (beagle dogs [1]; [6]): 1
Kidney: Cell infiltrate, mixed, perivascular, minimal (beagle dogs [1]; [6]): 1
Kidney: Dilatation tubular, animals affected (beagle dogs [1]; [6]): 4
Kidney: Dilatation tubular, minimal (beagle dogs [1]; [6]): 4
Kidney: Sclerosis glomerular, animals affected (beagle dogs [1]; [6]): 0
Kidney: Vacuolation glomerular, animals affected (beagle dogs [1]; [6]): 0
Liver: Cell infiltrate, mixed, diffuse, animals affected (beagle dogs [1]; [6]): 0
Liver: Cell infiltrate, mononuclear, multifocal, animals affected (beagle dogs [1]; [6]): 0
Liver: Hypertrophy hepatocellular, animals affected (beagle dogs [1]; [6]): 5
Liver: Hypertrophy hepatocellular, mild (beagle dogs [1]; [6]): 3
Liver: Hypertrophy hepatocellular, minimal (beagle dogs [1]; [6]): 2
Liver: Hypertrophy, Kupffer cells, animals affected (beagle dogs [1]; [6]): 2
Liver: Hypertrophy, Kupffer cells, mild (beagle dogs [1]; [6]): 1
Liver: Hypertrophy, Kupffer cells, minimal (beagle dogs [1]; [6]): 1
Spleen: Cell infiltrate, mixed cellular, diffuse (minimal), animals affected (beagle dogs [1]; [6]): 0
Kidney: Cell infiltrate, mixed, perivascular, animals affected (beagle dogs [1]; [7]): 5
Kidney: Cell infiltrate, mixed, perivascular, mild (beagle dogs [1]; [7]): 1
Kidney: Cell infiltrate, mixed, perivascular, minimal (beagle dogs [1]; [7]): 4
Kidney: Dilatation tubular, animals affected (beagle dogs [1]; [7]): 6
Kidney: Dilatation tubular, mild (beagle dogs [1]; [7]): 1
Kidney: Dilatation tubular, minimal (beagle dogs [1]; [7]): 5
Kidney: Sclerosis glomerular, animals affected (beagle dogs [1]; [7]): 0
Kidney: Vacuolation glomerular, animals affected (beagle dogs [1]; [7]): 0
Liver: Cell infiltrate, mixed, diffuse, animals affected (beagle dogs [1]; [7]): 0
Liver: Cell infiltrate, mononuclear, multifocal, animals affected (beagle dogs [1]; [7]): 0
Liver: Hypertrophy hepatocellular, animals affected (beagle dogs [1]; [7]): 6
Liver: Hypertrophy hepatocellular, mild (beagle dogs [1]; [7]): 5
Liver: Hypertrophy hepatocellular, minimal (beagle dogs [1]; [7]): 1
Liver: Hypertrophy, Kupffer cells, animals affected (beagle dogs [1]; [7]): 6
Liver: Hypertrophy, Kupffer cells, mild (beagle dogs [1]; [7]): 2
Liver: Hypertrophy, Kupffer cells, minimal (beagle dogs [1]; [7]): 4
Spleen: Cell infiltrate, mixed cellular, diffuse (minimal), animals affected (beagle dogs [1]; [7]): 2
AST (beagle dogs [1]; after 5 weekly IV doses): significant changes
large unstained cells (LUCs) (beagle dogs [1]; blood, following exposure): significant increases
bone marrow smears (beagle dogs [1]; femur and sternum at necropsy): No treatment-related changes
body temperature (beagle dogs [1]; following the first dose, dissipated upon repeat dosing by day 30): significant elevations
absolute WBC counts and main subsets (lymphocytes, neutrophils and monocytes) (beagle dogs [1]; weekly IV dosing): remained within normal ranges
relative weight of kidneys (beagle dogs [1]; weekly IV x5): significantly increased
relative weight of liver (beagle dogs [1]; weekly IV x5): significantly increased
spleen weight (beagle dogs [1]; weekly IV x5): no effect
thymus weights (beagle dogs [1]; weekly IV x5): modest but dose-dependent decreases
spleen weight (beagle dogs [2]): no significant effect
exposure (AUC) required to achieve efficacy as a monotherapy [3]: 687 µg·h/mL
AUC(0-t) ([4]; 25 mg, 25 mg weekly IV, read-out: AUC0-last Week 1): 465 µg·h/mL
AUC(0-t) ([4]; 25 mg, 25 mg weekly IV, read-out: AUC0-last Week 4): 610 µg·h/mL
AUC(0-t) ([4]; 50 mg, 50 mg weekly IV, read-out: AUC0-last Week 1): 709 µg·h/mL
AUC(0-t) ([4]; 50 mg, 50 mg weekly IV, read-out: AUC0-last Week 4): 1690 µg·h/mL
AUC(0-t) ([4]; 100 mg, 100 mg weekly IV, read-out: AUC0-last Week 1): 1210 µg·h/mL
AUC(0-t) ([4]; 100 mg, 100 mg weekly IV, read-out: AUC0-last Week 4): 2380 µg·h/mL
AUC(0-t) ([4]; 150 mg, 150 mg weekly IV, read-out: AUC0-last Week 1): 1440 µg·h/mL
AUC(0-t) ([4]; 150 mg, 150 mg weekly IV, read-out: AUC0-last Week 4): 2780 µg·h/mL
